One data set concerns the target T1, LTD4 receptor (Cavia porcellus, UniProt Q2NNR5).
T1 construct: guinea pig pulm-omembranous protein and a test compound; from tissue; host or cells: guinea pig lung membranes
T1 sequence (Q2NNR5 1-340): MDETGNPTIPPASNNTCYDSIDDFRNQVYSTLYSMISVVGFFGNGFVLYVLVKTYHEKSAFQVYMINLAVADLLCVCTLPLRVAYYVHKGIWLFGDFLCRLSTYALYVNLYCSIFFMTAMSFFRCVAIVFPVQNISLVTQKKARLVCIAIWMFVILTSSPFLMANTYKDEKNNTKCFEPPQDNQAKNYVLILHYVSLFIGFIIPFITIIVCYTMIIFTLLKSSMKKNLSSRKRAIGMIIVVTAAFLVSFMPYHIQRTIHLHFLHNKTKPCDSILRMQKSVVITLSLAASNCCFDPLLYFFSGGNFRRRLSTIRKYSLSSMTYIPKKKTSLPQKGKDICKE
The experiment in a line: LTD4 Receptor Binding Inhibition Test ([3H]LTD4, guinea pig pulmomembranous protein). The settings on record: read-out: LTD4 receptor dissociation constant (KD). The method, then:
LTD4 Receptor Binding Inhibition Test
An ice-cold tris hydrochloride/sodium chloride buffer (10 mM/100 mM, pH 7.5) was added to terminate the reaction, followed by immediate filtration through a Wattman CF/C filter. The filter was washed twice with 20 ml aliquots of the ice-cold buffer. The radioactivity of the residue was measured by a liquid scintillation counter.
In a binding assay, […] LTD4 was used for the measurement of a nonspecific binding.

Data set [1] has as its target T2, isolated guinea pig ileum (Cavia porcellus, UniProt Q2NNR5).
T2 construct: An isolated guinea pig ileum was cut into about 2 cm lengths; from tissue; host or cells: guinea pig ileum
T2 sequence (Q2NNR5 1-340): T1 sequence (Q2NNR5 1-340)
The experiment in a line: Anti-LTD4 action on isolated guinea pig ileum (LTD4 contraction). The format is cell-based. The settings on record: 10^-5 M test compound; contraction caused by 10^-8 M LTD4; read-out: Anti-LTD4 action (inhibition rate). The method, then: Antihistaminic Action and Anti-LTD4 Action (In vitro Tests)
An isolated guinea pig ileum was cut into about 2 cm lengths. Each ileum piece was suspended in a 20-ml container filled with the Tyrode's buffer. An isotonic contractive response by histamine or LTD4 was recorded on a recorder. The Tyrode's buffer was controlled at 30° C., through which a mixed gas (95%O2 -5%CO2) was bubbled.

Another data set addresses T3, H1 receptor (Cavia porcellus, UniProt P31389).
T3 construct: guinea pig cerebromembranous protein and a test compound; from tissue; host or cells: guinea pig brain membranes
The experiment in a line: H1 Receptor Binding Inhibition Test ([3H]mepyramin, guinea pig cerebromembranous protein). The note with it: read-out: H1 receptor dissociation constant (KD). How it is done: H1 Receptor Binding Inhibition Test
An ice-cold phosphate buffer was added to terminate the reaction, followed by immediate filtration through a Wattman CF/C filter. The filter was washed twice with 20 ml aliquots of the ice-cold buffer. The radio-activity of the residue was measured by a liquid scintillation counter. From a measurement value obtained without the addition of the test compound and measurements values obtained upon addition of the test compound at various concentrations, the dose-response of the inhibitory action of the test compound was measured and the 50% inhibitory concentration (IC50) was determined. Using the Cheng-Prusoff formula, a dissociation constant (KD) was calculated from the 50% inhibitory concentration (IC50).
In a binding assay, 10^4 M R(-)dimethindene was used for the measurement of a nonspecific binding.

Another data set has as its target T4, H1 (Mus musculus, UniProt P70174).
T4 construct: from tissue; host or cells: mouse brain homogenate, ex vivo after intraperitoneal dosing
The experiment in a line: Brain Penetration Test (ex vivo [3H]mepyramin binding in mouse brain). The settings on record: ip; for ED50: peritoneal administration to mouse, brain taken 1 hour after, [3H]mepyramin 0.5 nM, read-out: IC50 (50% inhibitory dose), ex vivo; for selectivity ratio at 1 h: mouse, brain, IC50 (mg/kg)/H1 binding inhibition dissociation constant (nM), read-out: BP index. How it is done: Described specifically, to a mouse of 20 g to 23 g, a test compound of a given concentration was peritoneally administered. Upon elapsed time of one hour after the administration, the mouse was sacrificed. The brain tissue was taken out, and was then homogenated with a 30 mM Na,K phosphate buffer (pH 7.5) to give 40 ml/g wet weight. […] Subsequent to incubation at 37° C. for 50 minutes, an ice-cold phosphate buffer was added to terminate the reaction. Each of the resulting mixtures was immediately filtered through Wattman CF/C filter. The filter was washed twice with 20 ml aliquots of the ice-cold buffer. The radioactivity of the residue was measured by a liquid scintillation counter. […] A BP index as an index of brain penetration was calculated in accordance with the following formula:
BP index=IC50 (mg/kg)/H1 binding inhibition dissociation constant (nM)

T3 sequence (P31389 whole entry): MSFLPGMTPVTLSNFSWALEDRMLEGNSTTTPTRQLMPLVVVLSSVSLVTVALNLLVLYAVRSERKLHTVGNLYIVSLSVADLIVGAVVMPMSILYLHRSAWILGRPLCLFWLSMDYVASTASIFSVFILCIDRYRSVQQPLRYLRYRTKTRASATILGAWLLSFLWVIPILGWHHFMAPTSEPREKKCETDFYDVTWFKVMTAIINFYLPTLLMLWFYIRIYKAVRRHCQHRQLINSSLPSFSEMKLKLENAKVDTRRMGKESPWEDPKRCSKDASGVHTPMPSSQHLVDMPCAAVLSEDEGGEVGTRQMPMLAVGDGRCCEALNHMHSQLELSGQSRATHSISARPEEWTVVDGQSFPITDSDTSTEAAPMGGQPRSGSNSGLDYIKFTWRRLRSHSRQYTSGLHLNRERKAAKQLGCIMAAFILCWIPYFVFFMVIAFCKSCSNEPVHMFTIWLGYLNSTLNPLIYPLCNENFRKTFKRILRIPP
T4 sequence (P70174 whole entry): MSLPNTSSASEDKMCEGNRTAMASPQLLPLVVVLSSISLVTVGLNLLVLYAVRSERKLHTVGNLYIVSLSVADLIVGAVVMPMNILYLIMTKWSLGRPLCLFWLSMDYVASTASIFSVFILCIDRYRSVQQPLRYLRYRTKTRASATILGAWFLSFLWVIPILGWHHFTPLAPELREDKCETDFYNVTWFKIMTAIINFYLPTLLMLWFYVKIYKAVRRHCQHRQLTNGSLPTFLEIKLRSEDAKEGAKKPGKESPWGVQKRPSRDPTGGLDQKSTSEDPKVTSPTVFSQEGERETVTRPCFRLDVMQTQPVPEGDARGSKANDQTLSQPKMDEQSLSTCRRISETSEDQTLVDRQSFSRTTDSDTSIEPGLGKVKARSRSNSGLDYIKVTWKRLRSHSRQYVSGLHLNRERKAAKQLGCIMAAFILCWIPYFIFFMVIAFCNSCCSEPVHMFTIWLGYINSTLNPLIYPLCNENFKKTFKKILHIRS

Broadly, the inhibition is how much of the control response was suppressed. Regarding `O=c1ccc2ccc(OCCN3CCCN(Cc4ccc5ccccc5n4)CC3)cc2[nH]1` [Example 79, 7-{2-[4-(2-Quinolylmethyl)-1-homopiperazinyl]ethoxy}-1,2-dihydroquinolin-2-one], the results for the Ki at LTD4 receptor and at H1 receptor were 8610 nM and 75.9 nM, respectively. In addition, the inhibition at 10 µM in data set [1] is 19%.
As for `Cn1c(CN2CCCN(CCOc3ccc4ccc(=O)[nH]c4c3)CC2)nc2ccccc21` [Example 80, 7-{2-[4-(N-Methylbenzoimidazol-2-ylmethyl)-1-homopiperazinyl]ethoxy)-1,2-dihydroquinolin-2-one], the Ki at LTD4 receptor is 18400 nM; at H1 receptor it was 4.31 nM. Also, in data set [1], the inhibition at 10 µM is 11%.
With `CC1(C)C(=O)Nc2cccc(OCCCN3CCCN(Cc4ccc5ccccc5n4)CC3)c21` [Example 85, 3,3-Dimethyl-4-{3-[4-(2-quinolylmethyl)-1-homopiperazinyl]propoxy}-2,3-dihydro-1H-indol-2-one], the results for the Ki on LTD4 receptor and at H1 receptor were 35700 nM and 18.3 nM, respectively. In data set [1], the inhibition at 10 µM stood at 21%.
Regarding `O=C1CSc2cc(OCCCN3CCN(Cc4ccc5ccccc5n4)CC3)ccc2N1` [Example 90, 7-{3-[4-(2-quinolylmethyl)piperazinyl]propoxy}-3,4-dihydro-2H-1,4-benzothiazin-3-one], the Ki at LTD4 receptor stood at 9410 nM; on H1 receptor, 5.01 nM. Further, on H1, the ED50 amounted to 8.5 mg/kg. The selectivity ratio at 1 h on H1 came to 1.7. Moreover, the inhibition at 10 µM in data set [1] was determined as 16%.
Take `Cc1ccc(OCCCN2CCN(Cc3ccc4ccccc4n3)CC2)c2c1NC(=O)CC2` [Example 91, 8-methyl-5-{3-[4-(2-quinolylmethyl)piperazinyl]propoxy}-1,2,3,4-tetrahydroquinolin-2-one]: at H1, the ED50 was determined as 10 mg/kg and the selectivity ratio at 1 h amounted to 35.7.
On to `Cc1ccc(OCCCN2CCN(Cc3ccc4ccccc4n3)CC2)c2c1NC(=O)C2(C)C` [Example 92], for which the Ki at LTD4 receptor was 4230 nM. In addition, at H1, the ED50 came out at 16.5 mg/kg and the selectivity ratio at 1 h amounted to 0.29. Further, the inhibition at 10 µM in data set [1] was found to be 42%. Besides, the Ki on H1 receptor came to 55.7 nM.

Source of the values: patent publication US6127360A, “Diamine derivatives and pharmaceutical containing the same” (Kowa Co., Ltd., priority 1997, dated 2000).
